Assay: RP, Waters ACQUITY UPLC BEH C18, 100 × 1 mm, 1.7 µm, 50 °C, 0.3 mL/min, estimated dead time 0.17 min; A: water + 0.1% formic acid + 20 mM ammonium formate; B: methanol + 0.1% formic acid + 20 mM ammonium formate; gradient (min/%B) 0/0 15/100 21/100 22/0 30/0
Conditions: stereoisomer not certain

Structure (SMILES) | LC retention time
CCCCCCOC(=O)c1ccccc1C(=O)OCCCCCC [Dihexylphthalate] | 18.2 min
CC1CCCCC1NC(=O)Nc1ccccc1 (configuration not stated) [Siduron] | 13.9 min
N#CCCCCC#N [Adiponitrile] | 5.21 min
CCCCCCCCCCCOC(=O)c1ccccc1C(=O)OCCCCCCCCCCC [Diundecylphthalate] | 21 min
CCS(=O)(=O)CCSP(=O)(OC)OC [Demeton-S-methyl-sulfone] | 7.78 min
CC(C)OC(=O)Nc1ccccc1 [Propham] | 12.7 min
CCCCC(O)(Cn1cncn1)c1ccc(Cl)cc1Cl (configuration not stated) [Hexaconazole] | 15.9 min
OC(c1ccc(Cl)cc1)(c1cncnc1)c1ccccc1Cl (configuration not stated) [Fenarimol] | 14.9 min
CCOC(=O)C(SP(=S)(OC)OC)c1ccccc1 (configuration not stated) [Phenthoate] | 15.4 min
CC1OC(OC2CCC3(C=O)C4CCC5(C)C(C6=CC(=O)OC6)CCC5(O)C4CCC3(O)C2)C(O)C(O)C1O (configuration not stated) [Convallatoxin] | 11.2 min
Nc1ccc2nc3ccc(N)cc3nc2c1 [2,8-Diaminophenazine] | 8.24 min
CCOC(=O)c1cn2nc(OP(=S)(OCC)OCC)cc2nc1C [Pyrazophos] | 15.9 min
CCNC(=O)NC(=O)C(C#N)=NOC [Cymoxanil] | 9.68 min
COCCOC(=O)c1ccccc1C(=O)OCCOC [Bis(2-methoxyethyl)phthalate] | 12.3 min
O=c1ccc(=O)[nH][nH]1 [Maleic acid hydazide] | 16.4 min
COc1cc(OC)nc(NC(=O)NS(=O)(=O)c2ncccc2C(F)(F)F)n1 [Flazasulfuron] | 13.4 min
O=c1ccn(C2OC(CO)C(O)C2(F)F)c(=O)[nH]1 (configuration not stated) [2',2'-Difluoro-2'-deoxyuridine] | 4.8 min
O=C1C(Cl)C(CCl)CN1c1cccc(C(F)(F)F)c1 (configuration not stated) [Flurochloridone] | 14.6 min

Second part, the molecule after the results:

LC retention time | Structure (SMILES)
14.3 min | Cc1ccc(O)cc1 [4-Methylphenol]
14.5 min | CC(C)=CCc1c(O)cc(O)c2c1OC(c1ccc(O)cc1)CC2=O (configuration not stated) [8-Prenylnaringenin]
10.6 min | CCCCN1CCCCC1C(=O)Nc1c(C)cccc1C (configuration not stated) [Bupivacaine]
12 min | CC1(C)C(=O)Oc2ccc(OS(C)(=O)=O)cc21 [Ethofumesate-2-keto]
8.71 min | O=C(O)c1cccc(C(=O)O)c1 [Isophthalic acid]
16 min | CCN(CC)CCOC(=O)C(Cc1cccc2ccccc12)CC1CCCO1 (configuration not stated) [Nafronyl]
10.7 min | CCNC(=O)c1cccc(C)c1 [N-Ethyl-3-methylbenzamide]
6.8 min | O=C(O)c1cc(=O)c2cccc(O)c2[nH]1 [Xanthurenic acid]
10.2 min | Cc1cccc(C)c1NC(=O)CCl [Metazachlor-N-dealkylation]
7.3 min | O=C(O)c1ccc2ccccc2n1 [Quinaldic acid]
19.6 min | CCCCCCCCC=CCCCCCCCCCCCC(N)=O [Erucamide]
9.8 min | CC(C)c1ccc(N)cc1 [4-Isopropylaniline]
13.5 min | CC1CN(C2CCCCCCCCCCC2)CC(C)O1 (configuration not stated) [Dodemorph]
9.29 min | Cc1cccc(C)c1N(Cn1cccn1)C(=O)C(=O)O [Metazachlor BH 479-4 (Metazachlor oxanilic acid (OA))]
13.5 min | CC(=O)c1ccc2ccccc2c1 [2-Acetonaphthone]
7.31 min | COCCOCCOC [Diglyme]
19 min | CCCCCCCCCCCC(CC1OC(=O)C1CCCCCC)OC(=O)C(CC(C)C)NC=O (configuration not stated) [Orlistat]
18.2 min | CC(C)CC(C)OC(=O)c1ccccc1C(=O)OC(C)CC(C)C (configuration not stated) [Bis(4-methyl-2-pentanyl)phthalate]
18.5 min | CC1CCC2(C(=O)O)CCC3(C)C(=CCC4C5(C)CCC(O)C(C)(C)C5CCC43C)C2C1C (configuration not stated) [Ursolic acid]
